Entries after “also recorded” stand apart in the source; their conditions may differ. Like-named read-outs stand apart in the source and are kept apart here.
How the values were obtained:
[1] = tested on: hydrogel tissue constructs (HTCs) of REF-52 cells; experiment: HTC force measurement (Palpator); type: cell-based, rat; settings: for effect on tissue (HTC contractile) force, in words: 3 and 24 hr
Protocol: Rat embryonic fibroblasts (REF-52) were cultured in Dulbecco's Modified Eagle's Medium (DMEM, MT10013CM, Fisher Scientific, Pittsburgh, Pa.) supplemented with 10% fetal bovine serum (FBS, S11050, Atlanta Biologicals, Lawrenceville, Ga.). Cells were sub-cultured every two to three days. To make hydrogel tissue constructs (HTCs), REF-52 cells (between passages 40 to 70) were dissociated from culture plates by treating with 0.05% trypsin (MT-25-025-CI, Fisher Scientific) for 10 to 15 min. The cells were then centrifuged at 1000 g for 10 min. The trypsin solution was decanted and the cell pellet was re-suspended in 10% FBS DMEM medium. This cell suspension was diluted in HTC tissue solution to achieve a final concentration of 8×10^5 cells per ml. The HTC tissue solution consisted of 10% FBS DMEM, 1 mg/ml of type 1 collagen (354249, BD Biosciences, San Jose, Calif.) in 0.02 N acetic acid, sufficient sodium hydroxide to neutralize the acid in the collagen, and sufficient 5×DMEM to compensate for the volume of collagen and NaOH. To prevent premature collagen polymerization, the HTC tissue solution was kept on ice until its distribution into our custom-made tissue molds (FIG. 3). Each mold contains 8 separate HTC-forming wells with two built-in horizontal support bars. Three hundred microliters of the HTC tissue solution was aliquoted into each well in these molds and then incubated for 30 min at 37° C. and 5% CO2. After the incubation period, […] of 10% FBS DMEM medium was added to each well and the molds were further incubated for 48 hr. In this time, the solution contracted to form HTCs that span the support bars in the wells.
The Palpator™ (as described in U.S. Pat. No. 7,449,306, which is incorporated herein by reference in its entirety) was used to quantify the contractility of the HTCs. The molds were placed on the stage of the Palpator™ which automatically inserted a probe into each well and stretched the individual HTC. The probe was connected to a force transducer which measured the resistance force induced in the HTC in response to stretch and exported the values to a computer for recording. A custom Matlab algorithm was used to process and analyze the force data to report a numerical parameter that is indicative of the active cell force in the HTC. To obtain stable measurements of the HTC contractile force, it was necessary to precondition the HTCs by stretching three times prior to actual force measurement. Preconditioning was not necessary if subsequent force measurements were within 30 min of the previous stretch. HTCs at 24 hr post treatment were always pre-conditioned before force measurement.

[2] = tested on: F-actin in HTCs of REF-52 cells; experiment: F-actin content of HTCs, Alexa-phalloidin, plate reader; type: cell-based, rat; settings: HTC treated 24 hours
From the text: FIG. 5A-FIG. 5W. FIG. 5A is a photograph of The Palpator™. The system includes an isometric force transducer (a), probe baths (b), and a hydrogel tissue construct (HTC) stage (c) on a temperature regulator plate (d). FIG. 5B is a photograph showing the x-y-z motion robotic arm which positions the force transducer with attached probe above the HTCs and lowers the probe onto the tissue for force measurement. FIG. 5C is a schematic of the robotic arm with attached force transducer and probe. FIG. 5D is a photograph of the probe positioned 1 mm above the mid-plane of a HTC (a) and then lowered until it first touches (b) and then stretches (c) the tissue. FIG. 5E is a graph showing representative forces recorded during HTC indentation. Arrows a, b, and c show force measurements associated with probe positions shown in (D). […] HTCs were preconditioned, then treated with varying concentrations of the four drugs as indicated. Forces were measured at 3 (f) and 24 hr (g). Force measurements were expressed relative to control, medium treated, HTCs (Fc). […] HTCs treated with drugs for 24 hours were fixed and labeled with Alexa 568 conjugated phalloidin. Fluorescence intensity was read on a plate reader and plotted relative to control, media treated, HTCs (Ic). […] At 3 hr (i-m) and 24 hr (n-r, s-w) post treatment, representative monolayers were fixed and stained with Alexa 568 conjugated phalloidin and DAPI. […] Note the larger scale bar in (g) and (l). Images were captured on a Leica SP5 confocal microscope using a water-immersion 63× objective, scale bar=50 μm.
Tissue force is maintained through the integrity of the cellular cytoskeleton, especially actin and myosin. To quantify amount of F (filamentous)-actin in the HTCs treated with the compounds, the HTCs were stained with Alexa […] conjugated phalloidin. […] This is in agreement with our previous report that CD mediated reduction in tissue force was due to the loss of intact F-actin. However, force reductions by H1152 and DNP were not related to the loss of F-actin. […] By 24 hours, short F-actins were re-distributed within less-spread (FIG. 5O) and binuclear (FIG. 5T) cells.

HTCs of REF-52 cells = tested on: HTCs of REF-52 cells
Protocol: 3-(4,5-dimethylthiazol-2-yl)-2,5-diphenyltetrazolium (MTT, M-6494, Invitrogen) was used to quantify cell viability in the HTCs. At predetermined times following drug exposure, MTT was added to each well to achieve 0.5 mg/ml. MTT was left in the wells for 2 hr and then removed. The formazan dye that forms in the cells were then suspended in 500 μl of isopropanol (S77795, Fisher Scientific) containing 0.1 N hydrochloric acid. Two hundred microliters of the formazan solution is then put into a 96-well plate well and read on the Synergy HT plate reader. Absorbance at 570 and 650 nm were recorded and the difference (A570-A650) was used as the absorbance intensity of the formazan.
All chemicals are from Sigma (Sigma-Alrich, St. Louis, Mo.) unless otherwise noted. […] DNP was diluted to 1 M in DMSO and then to 100, 10, and 1 mM in -F/G/P DMEM. Following HTC preconditioning and background force (i.e. pre-drug) measurement, 50 μl of the appropriate drug dilutions were added to each well to achieve the desired treatment concentration. Fifty microliters of -F/G/P DMEM was added to the control wells. Upon drug addition, medium in the wells was mixed by pipetting four times.
Finally to measure the compounds' effects on cellular viability, the assay using 3-(4,5-Dimethylthiazol-2-yl)-2,5-diphenyltetrazolium bromide (MTT) was performed. In cells, the yellow MTT is converted to a purple colored formazan by succinate dehydrogenase and this change can be quantified by light absorbance between 500-600 nm was quantitatively recorded using the plate reader.

REF-52 cells = settings: for cytotoxicity signs in cell monolayers (confluency, nuclei, shrinkage): 24 hours; for F-actin morphology in cells, microscopy: REF monolayers, 3 hr and 24 hr
Protocol: REF-52 cells were plated on 35 mm culture dishes (50,000 cells) in 10% FBS medium (2 ml). Cells are incubated over night and then treated with compounds. […] Cells were incubated with drugs for 24 hours prior to fixing. To fix, treated cells were rinsed once with 2 ml of phosphate buffered saline (PBS, D5652) and then incubated in 1 ml of 4% paraformaldehyde (Sigma) solution (in PBS) for 30 min. Fixed cells are rinsed twice and then stored in 2 ml of PBS.
Fixed REF-52 cells were permeabilized by incubating in 1 ml of 0.1% Triton (BP151, Fisher Scientific) solution (in PBS) for 15 min. Permeabilized cells were rinsed twice with 1 ml TBST buffer and then blocked with 1 ml of 5% goat serum in TBST for 1 hour. One milliliter of 1:200 diluted Alexa 568 conjugated phalloidin (A12380, Invitrogen) in TBST with 2% goat serum was then added to the cells. This staining solution also contained 400 nM of DAPI (D9564). Cells were stained for 30 min and then rinsed twice with TBST. Labeled cells were mounted with Vectashield (Vector Laboratories, Burlingame, Calif.), covered with a cover slide and then sealed with nail polish. The plate was then inverted on to a Leica SP5 confocal microscope (Leica Microsystems, Bannockburn, Ill.) and imaged with 63× water immersion objective. Alexa 568 was excited using the 543 laser line and DAPI was excited using a MaiTai multi-photon laser.

[3] = tested on: human epidermoid cell lines; settings: reported; cited from earlier work
[4] = tested on: mitochondrial membrane potential in HTCs of REF-52 cells; experiment: HTC TMRE labeling, mitochondrial potential; type: cell-based, rat; settings: for effect on mitochondrial potential, in words: HTC, TMRE; for EC50: Rattus norvegicus, read-out: EC50 of TMRE signal reduction (MMP uncoupling)
Protocol: The ethyl ester of tetramethylrhodamine (TMRE, T-669, Invitrogen, Carlsbad, Calif.) was used to quantify the mitochondrial potential of the HTCs. HTCs were incubated in 100 nM TMRE for 30 min and then in phenol red free 10% FBS DMEM for 60 min. Phenol red free medium was used to prevent interference with TMRE fluorescence reading. Following labeling, HTCs were preconditioned with three stretches and then prior to background force measurement. HTC TMRE signal was then read on a Synergy HT plate reader (Biotek Instruments, Winooski, Vt.). A custom made adapter plate was used to position the tissue molds on the plate-holding rack of the plate reader. Fluorescence signal was read from the bottom using the 543/590 excitation/emission filter set and a gain setting of 50. TMRE fluorescence intensity was also read following each force measurement at predetermined time points after drug treatments.
TMRE is cationic and accumulates in the mitochondria as a function of MMP. […] More detailed investigation of DNP's effect on TMRE accumulation using confocal microscopy improved signal detection in both monolayers and HTCs (FIG. 6C and FIG. 6D).

HepG2 cells = settings: previously reported; cited from earlier work
[5] = HTC, 3 hr treatment, read-out: EC50 of tissue force reduction

C=C1[C@@H](C)[C@H]2[C@H](Cc3ccccc3)NC(=O)[C@]23[C@H](OC(C)=O)/C=C/[C@@](C)(O)C(=O)[C@@H](C)C/C=C/[C@H]3[C@@H]1O [CD, Cytochalasin D]
effect on tissue (HTC contractile) force, in words ([1]; HTC): dose-dependently reduced HTC contractile force; also recorded: dose-dependently reduced tissue force; also recorded: very effective at reducing HTC force
EC50 [1, 5]: ~0.1 µM
F-actin content of HTCs (Alexa-phalloidin intensity) [2]: significantly reduced
F-actin content of HTCs (Alexa-phalloidin intensity) ([2]; listed as Cytochalasin D): reduced cellular F-actin
reduction of MTT signal (HTCs of REF-52 cells; 0.2 μM, 24 hours): 40%
reduction of MTT signal (HTCs of REF-52 cells; 2 μM, 24 hours): 40%
cytotoxicity signs in cell monolayers (confluency, nuclei, shrinkage) (REF-52 cells): cytotoxicity was evident
F-actin morphology in cells, microscopy (REF-52 cells): extensive actin depolymerization by 3 hr; also recorded: extensive disruption of F-actin as early as 3 hours
LD50 [3]: 5 to 30 µM

C[S+](C)[O-] [DMSO, dimethyl sulfoxide]
formazan absorbance relative to control (A/Ac) (HTCs of REF-52 cells; rat, 24 h, 10 %): 0.11±9×10^−3

O=[N+]([O-])c1ccc(O)c([N+](=O)[O-])c1 [DNP, 2,4-dinitrophenol]
reduction in EC50 of effect on tissue force ([1]; 24 hr vs 3 hr): 65 fold
concentration needed to reduce tissue force relative to H-1152 or CD ([1]; HTC): ~10,000 fold
effect on tissue (HTC contractile) force, in words ([1]; HTC): dose-dependently reduced HTC contractile force; also recorded: also reduced tissue force; also recorded: very effective at reducing HTC force
EC50 ([1]; Rattus norvegicus, REF52, 3 h, read-out: EC50 of tissue force reduction): 1300 µM
EC50 ([1]; Rattus norvegicus, REF52, 24 h, read-out: EC50 of tissue force reduction): 20 µM
F-actin content of HTCs (Alexa-phalloidin intensity) [2]: comparable to controls
reduction in TMRE EC50 by 24 hours treatment ([4]; 24 hr vs 3 hr): 3.6 fold
effect on mitochondrial potential, in words [4]: dose-dependently uncoupled HTC mitochondrial potential; also recorded: extensive uncoupling effect
EC50 ([4]; REF52, 3 h): ~340 µM
EC50 ([4]; REF52, 24 h): ~95 µM
effect on HTC viability / MTT signal, in words (HTCs of REF-52 cells; 24 hours): did not affect MTT signal
cytotoxicity signs in cell monolayers (confluency, nuclei, shrinkage) (REF-52 cells): less than that of control
F-actin morphology in cells, microscopy (REF-52 cells): limited to no effects; also recorded: did not dramatically affect F-actin morphology

Cc1cncc2cccc(S(=O)(=O)N3CCCNC[C@@H]3C)c12 [H-1152]
effect on tissue (HTC contractile) force, in words ([1]; HTC): dose-dependently reduced tissue force
effect on tissue (HTC contractile) force, in words ([1]; HTC, listed as RKI): very effective at reducing HTC force
effect on tissue (HTC contractile) force, in words ([1]; HTC, listed as RKI1): dose-dependently reduced HTC contractile force; also recorded: effectively reduced tissue force
EC50 [1, 5]: ~0.1 µM
EC50 ([1]; HTC, time not stated at place, read-out: force-reducing EC50): 0.1 µM
F-actin content of HTCs (Alexa-phalloidin intensity) [2]: comparable to controls
effect on mitochondrial potential, in words ([4]; listed as RKI): limited mitochondrial and viability toxicity
effect on mitochondrial potential, in words ([4]; listed as RKI1): minimal uncoupling activity
F-actin morphology in cells, microscopy (REF-52 cells; listed as RKI): did not dramatically affect F-actin morphology
F-actin morphology in cells, microscopy (REF-52 cells; listed as RKI1): limited to no effects

C=C(C)[C@H]1Cc2c(ccc3c2O[C@@H]2COc4cc(OC)c(OC)cc4[C@@H]2C3=O)O1 [ROT, rotenone]
effect on tissue (HTC contractile) force, in words ([1]; HTC): dose-dependently reduced HTC contractile force; also recorded: also reduced tissue force; also recorded: moderate negative impact
F-actin content of HTCs (Alexa-phalloidin intensity) [2]: inconclusive
effect on mitochondrial potential, in words [4]: moderate negative impact
reduction of MTT signal (HTCs of REF-52 cells; 10 μM, 24 hours): 40%
cytotoxicity signs in cell monolayers (confluency, nuclei, shrinkage) (REF-52 cells): cytotoxicity was evident; also recorded: less than that of control; also recorded: Noticeable nuclear fragmentation
F-actin morphology in cells, microscopy (REF-52 cells): limited to no effects; also recorded: did not dramatically affect F-actin morphology
toxicity (HepG2 cells): 25%

Reference: patent US10732174B2, “Three dimensional tissues for high-throughput assays” (INVIVOSCIENCES, INC., priority 2008, dated 2020)
